Measured values: patent publication US6346529B1, “Antiviral therapy using thiazine dyes” (Oklahoma Medical Research Foundation, priority 1988, dated 2002)
pEC50, pIC50: −log10 of the molar value. Where two headings read alike, the source gives them in different places.

Key:
Toxicity in Vero cells = assay type: cell-based; details: African green monkey
Protocol: The cells dislodged from the flask were generally in clumps and were dispersed by repeated forceful pipetting of the suspension against the surface of the flask. To 1 ml of the well-dispersed cell suspension, 0.2 ml of trypan blue solution was added, and the number of cells were counted using a hemacytomer. Each day for the next 3 days, two of the remaining flasks were harvested in the manner just described for determination of cell number. Only data on day three are presented. This method has previously been described by Schinazi, et al., “Effect of Combination of Acyclovir, and Vidarabine or its 5′-monophosphate on Herpes Simplex Viruses in Cell Culture and in Mice,” Antimicrob. Agents Chemother. 22, 499-507 (1982)). Median-Effect Method: EC50 and IC50 values were obtained by analysis of the data using the median-effect equation (Chou, T., et al., “Quantitative Analysis of Dose-Effect Relationships: The Combined Effects of Multiple Drugs or Enzyme Inhibitors,” Adv. Enz. Regul. 22, 27-55 (1984).

[1] = CEM cell proliferation (cytotoxicity) assay; assay type: cell-based; details: human
Protocol: PBM and CEM Cells Proliferation Assay: The drugs were evaluated for their potential toxic effects on uninfected PHA-stimulated human PBM cells and also in CEM cells. The cells were cultured with and without drug for 6 days at which time aliquots were counted for cell viability as described above. Median-Effect Method: EC50 and IC50 values were obtained by analysis of the data using the median-effect equation (Chou, T., et al., “Quantitative Analysis of Dose-Effect Relationships: The Combined Effects of Multiple Drugs or Enzyme Inhibitors,” Adv. Enz. Regul. 22, 27-55 (1984).

HIV (LAV-I) = assay: HIV in human PBMC, P24 levels by EIA; assay type: cell-based; details: for inhibition at 0.001 µM / inhibition at 0.01 µM / inhibition at 1 µM / inhibition at 10 µM / inhibition at 0.1 µM / pEC50: Human immunodeficiency virus 1, PBMC
Protocol: While the previous example measured RT activity, the present example utilizes a direct quantitation of a viral protein (P24) as an indicator of antiviral effectiveness.
Peripheral blood mononuclear (PBM) cells were infected with HIV and treated with methylene blue as described above. The EC50 levels were calculated from enzyme immuno-assay (EIA) measurements of viral coat protein P24. The P24-specific EIA kit was purchased from Abbott Labs.

[2] = test system: nucleosides of adenine, cytosine, thymine, and guanine; assay: Methylene blue plus light treatment of nucleosides (HPLC); assay type: biochemical; details: methylene blue plus light 15 min
Protocol: The nucleosides of adenine, cytosine, thymine, and guanine (approximately 200 nmoles each) were also subjected to methylene blue (20 μl into 2.0 mls final total volume) plus light treatment (100 watt incandescent light 11 cm over solution for 15 min).

[3] = Ziv and Heavner 1984; cited from earlier work
RNA virus R17 = assay: Inactivation of RNA virus R17, plaque titer on E. coli lawn; assay type: cell-based, R17 phage
[4] = biological target: T1, calf thymus DNA polymerase alpha (CT α pol) (Bos taurus, UniProt A0AAA9TD94); assay: DNA polymerase alpha enzyme assay; assay type: biochemical
T1 construct: calf thymus DNA polymerase alpha (CT α pol); from tissue; host or cells: calf thymus
Source text: Enzyme Assays: The preparation of the enzyme and the assay conditions used, were recently described by Schinazi, et al., Antimicrob. Agents Chemother. 33, 115-117 (1989). HIV-1 RT and cellular DNA polymerase alpha were isolated from infected and uninfected PHA-stimulated human PBM cells according to traditional methods (Eriksson, B., et al., Antimicrob. Agents Chemother. 31, 600-604, (1987); Furman, et al., Proc. Natl. Acad. Sci. USA 83, 8333-8337, (1986); Abrell, et al., J. Virol. 12, 431-439, (1973).
Assays. Reaction mixtures (100 μl) contained:
The reactions were started by the addition of 10 μl of purified enzyme, incubated at 37° C. for the indicated periods of time and processed as described in Eriksson, et al., Antimicrob. Agents Chemother. 31, 600-604 (1987).
Median-Effect Method: EC50 and IC50 values were obtained by analysis of the data using the median-effect equation (Chou, T., et al., “Quantitative Analysis of Dose-Effect Relationships: The Combined Effects of Multiple Drugs or Enzyme Inhibitors,” Adv. Enz. Regul. 22, 27-55 (1984).
The effect of methylene blue on two DNA polymerizing enzymes, HIV reverse transcriptase (RT) and calf thymus DNA polymerase alpha (CT α pol), was also studied.

T1 sequence (A0AAA9TD94 entry or part of it): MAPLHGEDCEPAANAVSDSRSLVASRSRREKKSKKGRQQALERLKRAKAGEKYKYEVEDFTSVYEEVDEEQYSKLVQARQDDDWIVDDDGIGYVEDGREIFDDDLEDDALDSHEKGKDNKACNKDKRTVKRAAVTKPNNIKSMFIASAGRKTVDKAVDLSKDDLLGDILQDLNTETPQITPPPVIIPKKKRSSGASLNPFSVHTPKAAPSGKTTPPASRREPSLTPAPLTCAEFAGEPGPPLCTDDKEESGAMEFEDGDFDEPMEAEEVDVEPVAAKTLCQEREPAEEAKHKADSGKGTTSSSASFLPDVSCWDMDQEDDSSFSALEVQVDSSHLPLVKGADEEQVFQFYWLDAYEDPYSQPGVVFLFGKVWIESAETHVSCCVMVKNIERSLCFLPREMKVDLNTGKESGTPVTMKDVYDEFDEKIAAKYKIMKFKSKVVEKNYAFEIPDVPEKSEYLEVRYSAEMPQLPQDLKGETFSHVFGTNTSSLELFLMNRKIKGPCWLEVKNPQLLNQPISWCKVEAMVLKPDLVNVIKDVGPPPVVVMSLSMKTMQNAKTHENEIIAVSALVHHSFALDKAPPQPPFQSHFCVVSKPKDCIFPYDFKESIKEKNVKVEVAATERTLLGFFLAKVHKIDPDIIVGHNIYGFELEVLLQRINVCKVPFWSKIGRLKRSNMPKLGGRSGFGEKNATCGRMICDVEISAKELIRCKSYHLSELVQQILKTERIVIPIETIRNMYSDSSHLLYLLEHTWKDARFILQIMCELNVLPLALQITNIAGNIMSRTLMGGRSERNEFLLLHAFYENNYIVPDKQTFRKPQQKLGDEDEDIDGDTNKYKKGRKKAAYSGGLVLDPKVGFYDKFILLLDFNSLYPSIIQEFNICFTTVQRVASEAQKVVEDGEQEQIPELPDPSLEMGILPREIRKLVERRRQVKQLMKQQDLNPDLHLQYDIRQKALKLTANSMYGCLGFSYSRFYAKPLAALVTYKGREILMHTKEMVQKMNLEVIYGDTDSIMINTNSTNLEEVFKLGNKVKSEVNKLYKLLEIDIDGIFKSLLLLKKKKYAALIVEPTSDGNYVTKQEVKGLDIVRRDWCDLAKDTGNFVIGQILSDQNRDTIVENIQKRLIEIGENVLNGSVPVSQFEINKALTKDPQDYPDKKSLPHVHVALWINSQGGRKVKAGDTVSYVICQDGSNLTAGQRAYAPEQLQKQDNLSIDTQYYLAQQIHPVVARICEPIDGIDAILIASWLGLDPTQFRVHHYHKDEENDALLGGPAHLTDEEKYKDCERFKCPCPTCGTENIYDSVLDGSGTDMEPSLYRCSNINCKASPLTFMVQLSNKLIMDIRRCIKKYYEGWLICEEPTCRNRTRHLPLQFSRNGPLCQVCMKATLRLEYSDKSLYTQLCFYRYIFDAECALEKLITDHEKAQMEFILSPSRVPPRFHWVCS

Question: Which IC50 at 3 days (Toxicity in Vero cells) does the source give for `Nc1nc2c(ncn2COCCO)c(=O)[nH]1` [ACV, Acyclovir] here?
Answer: 1700 µM

Question: And the IC50 at 6 days [1]?
Answer: > 100 µM

Question: Which results are given for `CN(C)c1ccc2nc3ccc(N(C)C)cc3[s+]c2c1.[Cl-]` [MB, 3,7-Bis(dimethylamino)phenothiazin-5-ium chloride]?
Answer: ng P24/ml (HIV (LAV-I); Dark, 0.001 μM): 356.0 ng P24/ml; ng P24/ml (HIV (LAV-I); Dark, 0.01 μM): 270.2 ng P24/ml; ng P24/ml (HIV (LAV-I); Dark, 1 μM): 84.1 ng P24/ml; ng P24/ml (HIV (LAV-I); Dark, 10 μM): 5.4 ng P24/ml; ng P24/ml (HIV (LAV-I); Dark, .1 μM): 287.2 ng P24/ml; inhibition at 0.001 µM (HIV (LAV-I); read-out: % Inhibition (corrected), Dark, 0.001 μM): 0.8%; inhibition at 0.01 µM (HIV (LAV-I); read-out: % Inhibition (corrected), Dark, 0.01 μM): 24.7%; inhibition at 1 µM (HIV (LAV-I); read-out: % Inhibition (corrected), Dark, 1 μM): 76.6%; inhibition at 10 µM (HIV (LAV-I); read-out: % Inhibition (corrected), Dark, 10 μM): 98.5%; inhibition at 0.1 µM (HIV (LAV-I); read-out: % Inhibition (corrected), Dark, .1 μM): 20%; inhibition at 0.001 µM (HIV (LAV-I); read-out: % Inhibition (corrected), Light, 0.001 μM): -3.2%; inhibition at 0.01 µM (HIV (LAV-I); read-out: % Inhibition (corrected), Light, 0.01 μM): -3.2%; inhibition at 1 µM (HIV (LAV-I); read-out: % Inhibition (corrected), Light, 1 μM): 98.6%; inhibition at 10 µM (HIV (LAV-I); read-out: % Inhibition (corrected), Light, 10 μM): 99.4%; inhibition at 0.1 µM (HIV (LAV-I); read-out: % Inhibition (corrected), Light, .1 μM): 15.8%; pEC50 (HIV (LAV-I); read-out: EC50 (P24), Dark): 6.48; pEC50 (HIV (LAV-I); read-out: EC50 (P24), Light): 7.62; ng P24/ml (HIV (LAV-I); Light, 0.001 μM): 370.5 ng P24/ml; ng P24/ml (HIV (LAV-I); Light, 0.01 μM): 370.5 ng P24/ml; ng P24/ml (HIV (LAV-I); Light, 1 μM): 5.1 ng P24/ml; ng P24/ml (HIV (LAV-I); Light, 10 μM): 2.2 ng P24/ml; ng P24/ml (HIV (LAV-I); Light, .1 μM): 302.2 ng P24/ml; formation of hydroxylated derivative from nucleosides [2]: Only deoxyguanosine reacted to form the hydroxylated derivative; crossing of the blood-milk barrier [3]: crosses the blood-milk barrier easily; inactivation of R17 (ability to form plaques) (RNA virus R17; 0.02 μM methylene blue plus light for 15 min): causes inactivation of R17; PFU (RNA virus R17; MB 0.05 uM, light 1.0 min): 1.0 × 10^9/ml PFU/ml; pIC50 ([4]; Dark): 3.98; pIC50 ([4]; Light): 3.90
